In ChEMBL document CHEMBL5331104, “Discovery of BRD4-HDAC Dual Inhibitors with Improved Fungal Selectivity and Potent Synergistic Antifungal Activity against Fluconazole-Resistant Candida albicans” (J Med Chem, 2023):
In brackets after ≈: the same amount, converted by molar mass. Activity calls are given as the source filed them. The calls are words filed in the database; no cut-off is given here.

Key:
[1] = tested on: Nakaseomyces glabratus; test: Antifungal activity against Candida glabrata 4408 assessed as microbial growth inhibition; type: functional
[2] = tested on: Candida albicans; test: Synergetic antifungal activity against Candida albicans 0304103 assessed as microbial growth inhibition incubated for 24 hrs in the presence of (S, E)-N-Hydroxy-3-(4-(2-(1-methyl-6-(p-tolyl)-4H-benzo(f)-(1,2,4)triazolo(4,3-a)[1,4]diazepin-4-y)acetamido)phenyl)-acrylamide by checkerboard microdilution method; type: functional
[3] = tested on: Candida albicans; test: microbe, parasite or virus in culture; type: functional; conditions: 0304103
Description: Antifungal activity against Candida albicans 0304103 assessed as microbial growth inhibition

[4] = tested on: Candida albicans; test: Synergetic antifungal activity against Candida albicans 0304103 assessed as microbial growth inhibition incubated for 24 hrs in the presence of (S)-N-Hydroxy-4-(2-(1-methyl-6-phenyl-4H-benzo[f](1,2,4)-triazolo-[4,3-a],[1,4]diazepin-4-yl)acetamido)benzamide by checkerboard microdilution method; type: functional
[5] = tested on: Candida albicans; test: Synergetic antifungal activity against Candida albicans 0304103 assessed as microbial growth inhibition incubated for 24 hrs in the presence of (S)-N-Hydroxy-2-(4-(2-(l-methyl-6-phenyl-4H-benzo[f](1,2,4)-triazolo-[4,3-a][1,4]diazepin 4-yl)acetamido)phenyl)acetamide by checkerboard microdilution method; type: functional
[6] = tested on: Candida albicans; test: Synergetic antifungal activity against Candida albicans 0304103 assessed as microbial growth inhibition incubated for 24 hrs in the presence of (S)-N-Hydroxy-4-(2-(1-methyl-6-(p-toly1)-4H-benzo[f](1,2,4)-triazolo-(4,3-a][1,4]diazepin-4-yl)acetamido)benzamide by checkerboard microdilution method; type: functional
[7] = tested on: Candida albicans; test: Synergetic antifungal activity against Candida albicans 0304103 assessed as microbial growth inhibition incubated for 24 hrs in the presence of (S)-N-Hydroxy-2-(4-(2-(1-methyl-6-(p-toly1)-4H-benzo[f](1,2,4)-triazolo[4,3-a][1,4]diazepin-4-yl)acetamido)phenyl)acetamideby checkerboard microdilution method; type: functional
[8] = tested on: Candida albicans; test: Synergetic antifungal activity against Candida albicans 0304103 assessed as microbial growth inhibition incubated for 24 hrs in the presence of (S)-4-(2-(6-(4-Chlorophenyl)-1-methyl-4H-benzo[f](1,2,4)-triazolo(4,3-a)(1,4)diazepin-4-yl)acetamido)-N-hydroxybenzamide by checkerboard microdilution method; type: functional
[9] = tested on: Candida albicans; test: Synergetic antifungal activity against Candida albicans 0304103 assessed as microbial growth inhibition incubated for 24 hrs in the presence of (S)-2-(6-(4-Chlorophenyl)-1-methyl-4H-benzo[f][1,2,4]triazolo-14,3-a)(1,4)diazepin-4-yl)-N-(4-(2-(hydroxyamino)-2-oxoethyl)-phenyl)acetamide by checkerboard microdilution method; type: functional
[10] = tested on: Candida albicans; test: Synergetic antifungal activity against Candida albicans 0304103 assessed as microbial growth inhibition incubated for 24 hrs in the presence of (S,E)-3-(4-(2-(6-(4-Chlorophenyl)-1-methy1-4H-benzo[f][1,2,4]-triazolo(4,3-a)[1,4]diazepin-4-yl)acetamido)phenyl)-N-hydroxyacrylamide by checkerboard microdilution method; type: functional
[11] = tested on: Candida albicans; test: Synergetic antifungal activity against Candida albicans 0304103 assessed as microbial growth inhibition incubated for 24 hrs in the presence of (S)-4-((2-(8-Chloro-6-(2-chloropheny1)-1-methyl-4H-benzo[f]-[1,2,4]-triazolo(4,3-a)(1,4]diazepin-4-yl)acetamido)methyl)-N-hydroxy-benzamide by checkerboard microdilution method; type: functional
[12] = tested on: Candida albicans; test: Synergetic antifungal activity against Candida albicans 0304103 assessed as microbial growth inhibition incubated for 24 hrs in the presence of (S)-2-(8-Chloro-6-(2-chlorophenyl)-1-methyl-4H-benzo[f][1,2,4]-triazolo(4,3-a][1,4]diazepin-4-y1)-N-(4-(2-(hydroxyamino)-2-oxoethyl)-phenyl)acetamide by checkerboard microdilution method; type: functional
[13] = tested on: Candida albicans; test: Synergetic antifungal activity against Candida albicans 0304103 assessed as microbial growth inhibition incubated for 24 hrs in the presence of (S,E)-3-(4-(2-(6-(4-Chlorophenyl)-1-methyl-7,8,9,10-tetrahydro-4H-benzo-(4,5]thieno(3,2-f)(1,2,4)triazolo(4,3-a)(1,4]diazepin-4-yl)acetamido)pheny1)N-hydroxyacrylamide by checkerboard microdilution method; type: functional
[14] = tested on: Candida albicans; test: Synergetic antifungal activity against Candida albicans 0304103 assessed as microbial growth inhibition incubated for 24 hrs in the presence of (+)-JQ1 by checkerboard microdilution method; type: functional
[15] = tested on: [Candida] auris; test: Antifungal activity against Candida auris 0030 assessed as microbial growth inhibition; type: functional; conditions: Candidozyma auris
[16] = tested on: Candida albicans; test: Antifungal activity against Candida albicans 9172 assessed as microbial growth inhibition; type: functional
[17] = tested on: Candida albicans; test: Antifungal activity against Candida albicans 9884 assessed as microbial growth inhibition; type: functional
[18] = tested on: Cryptococcus neoformans; test: Antifungal activity against Cryptococcus neoformans 011405 assessed as microbial growth inhibition; type: functional
[19] = tested on: [Candida] auris; test: Synergetic antifungal activity against Candida auris 0030 assessed as microbial growth inhibition incubated for 24 hrs in the presence of (S)-4-((2-(6-(4-Chlorophenyl)-1-methyl-7,8,9,10-tetrahydro-4H-benzo-(4,5)thieno[3,2-f][1,2,4]triazolo(4,3-a)(1,4)diazepin-4-yl)-acetamido)-methyl)-N-hydroxybenzamide by checkerboard microdilution method; type: functional; conditions: Candidozyma auris
[20] = tested on: Candida albicans; test: Synergetic antifungal activity against Candida albicans 9172 assessed as microbial growth inhibition incubated for 24 hrs in the presence of (S)-4-((2-(6-(4-Chlorophenyl)-1-methyl-7,8,9,10-tetrahydro-4H-benzo-(4,5)thieno[3,2-f][1,2,4]triazolo(4,3-a)(1,4)diazepin-4-yl)-acetamido)-methyl)-N-hydroxybenzamide by checkerboard microdilution method; type: functional
[21] = tested on: Candida albicans; test: Synergetic antifungal activity against Candida albicans 10061 assessed as microbial growth inhibition incubated for 24 hrs in the presence of (S)-4-((2-(6-(4-Chlorophenyl)-1-methyl-7,8,9,10-tetrahydro-4H-benzo-(4,5)thieno[3,2-f][1,2,4]triazolo(4,3-a)(1,4)diazepin-4-yl)-acetamido)-methyl)-N-hydroxybenzamide by checkerboard microdilution method; type: functional
[22] = tested on: Candida albicans; test: Synergetic antifungal activity against Candida albicans 9884 assessed as microbial growth inhibition incubated for 24 hrs in the presence of (S)-4-((2-(6-(4-Chlorophenyl)-1-methyl-7,8,9,10-tetrahydro-4H-benzo-(4,5)thieno[3,2-f][1,2,4]triazolo(4,3-a)(1,4)diazepin-4-yl)-acetamido)-methyl)-N-hydroxybenzamide by checkerboard microdilution method; type: functional
[23] = tested on: Candida albicans; test: Antibiofilm activity against FLC-resistant Candida albicans 0304103 assessed as reduction in fungal growth at 32 ug/mL and measured for 48 hrs by time-growth curve assay; type: functional, organism-based; conditions: dose 32.0 µg/ml
[24] = tested on: Candida albicans; test: Antibiofilm activity against FLC-resistant Candida albicans 0304103 assessed as inhibition of biofilm formation at 64 ug/mL incubated for 24 hrs by XTT reduction assay; type: functional, organism-based; conditions: dose 64.0 µg/ml
[25] = tested on: Candida albicans; test: Downregulation of CDR2 expression in Candida albicans 0304103 at 32 ug/mL incubated for 24 hrs by RT q-PCR analysis; type: functional; conditions: dose 32.0 µg/ml
[26] = tested on: Candida albicans; test: Downregulation of ADH5 expression in Candida albicans 0304103 at 32 ug/mL incubated for 24 hrs by RT q-PCR analysis; type: functional; conditions: dose 32.0 µg/ml

Q: With `OC(Cn1cncn1)(Cn1cncn1)c1ccc(F)cc1F` [FLUCONAZOLE] as the compound, how does the MIC80 [1] read?
A: 64 µg/mL (≈ 209 µM)

Q: What about the MIC80 [2] of the same compound?
A: 2 µg/mL

Q: And the MIC80 [3]?
A: > 64 µg/mL

Q: And the MIC80 [4]?
A: 2 µg/mL

Q: What about the MIC80 [5] of the same compound?
A: 4 µg/mL

Q: And the MIC80 [6]?
A: 1 µg/mL

Q: And the MIC80 [7]?
A: 1 µg/mL

Q: And the MIC80 [8]?
A: 4 µg/mL

Q: What about the MIC80 [9] of the same compound?
A: 16 µg/mL

Q: What about the MIC80 [10] of the same compound?
A: 0.25 µg/mL

Q: And the MIC80 [11]?
A: 2 µg/mL

Q: And the MIC80 [12]?
A: 1 µg/mL

Q: And the MIC80 [13]?
A: 0.25 µg/mL

Q: What about the MIC80 [14] of the same compound?
A: > 64 µg/mL

Q: And the MIC80 [15]?
A: > 64 µg/mL

Q: What about the MIC80 [16] of the same compound?
A: > 64 µg/mL

Q: And the MIC80 [17]?
A: 2 µg/mL (≈ 6.53 µM)

Q: What about the MIC80 [18] of the same compound?
A: 8 µg/mL (≈ 26.1 µM)

Q: What about the MIC80 [19] of the same compound?
A: 64 µg/mL

Q: What about the MIC80 [20] of the same compound?
A: 0.5 µg/mL

Q: And the MIC80 [21]?
A: 1 µg/mL

Q: And the MIC80 [22]?
A: 0.25 µg/mL

Q: And the Activity [23]?
A: inactive

Q: What about the Activity [24] of the same compound?
A: inactive

Q: And the Activity [25]?
A: inactive

Q: And the Activity [26]?
A: inactive
